From patent US10745397B2, “1-Substituted 1,2,3,4-tetrahydro-1,7-naphthyridin-8-amine derivatives and their use as EP4 receptor antagonists” (TAKEDA PHARMACEUTICAL COMPANY LIMITED, priority 2015, dated 2020) come the findings set out here.

In one experiment the target is T1, human EP4 receptor (Homo sapiens, UniProt P35408).
T1 construct: expressed in transfected cells; host or cells: FreeStyle293 (HEK293F) cells, transient transfection with pcDNA3.1(+), total membrane fraction
In words: hEP4 radioligand binding assay ([3H] PGE2 competitive binding, membrane fractions). Particulars: 300 nM compound; 1 nM [3H] PGE2. In a few lines:
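Membranes from FreeStyle293 (HEK293F) cells transiently expressing full-length human EP4; 10 μg protein incubated with compound and 1 nM [3H]PGE2 in 50 mM Tris-HCl pH 6.0, 10 mM MgCl2, 0.5 mM EDTA, 1% DMSO, 2 h at room temperature. Nonspecific binding with 10 μM unlabeled PGE2; filtration and scintillation counting; Ki by one-site fit.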

Experiment [1] deals with T2, hEP4 (C6 glioma cells overexpressing hEP4) (Homo sapiens, UniProt P35408).
T2 construct: host or cells: C6 glioma cells overexpressing hEP4
T2 sequence (P35408 whole entry): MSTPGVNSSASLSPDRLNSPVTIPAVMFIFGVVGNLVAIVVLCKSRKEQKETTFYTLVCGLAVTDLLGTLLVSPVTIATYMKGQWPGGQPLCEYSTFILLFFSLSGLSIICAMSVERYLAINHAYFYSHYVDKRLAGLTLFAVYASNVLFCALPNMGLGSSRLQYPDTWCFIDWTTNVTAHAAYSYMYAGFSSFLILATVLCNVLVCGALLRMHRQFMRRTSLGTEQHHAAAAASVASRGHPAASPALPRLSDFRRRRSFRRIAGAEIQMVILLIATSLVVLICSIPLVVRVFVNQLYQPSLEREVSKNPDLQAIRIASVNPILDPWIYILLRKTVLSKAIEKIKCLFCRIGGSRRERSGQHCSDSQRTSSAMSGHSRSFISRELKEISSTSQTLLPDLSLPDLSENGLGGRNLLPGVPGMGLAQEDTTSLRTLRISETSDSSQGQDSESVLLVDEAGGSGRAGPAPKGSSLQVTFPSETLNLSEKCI
In words: hEP4 cell based assay (cAMP), inhibition of PGE2 induced cAMP, HTRF. Particulars: 1 μM compound, PGE2 at EC80. An outline of the steps:
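C6 glioma cells overexpressing hEP4 were pre-incubated 15 min with compound plus IBMX and Ro 20-1724 (each […]), then stimulated 30 min with PGE2 at EC80; 1% DMSO. cAMP was read by competitive HTRF (665/620 nm); IC50 came from non-linear regression, with agonist-only as 0% and no-agonist as 100% inhibition.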

The test system of experiment [2] is Adjuvant Induced Arthritis (AIA) Model in Female Lewis Rats. As to the kind of experiment: Suppression of arthritis development in adjuvant induced arthritis (AIA) model, arthritis score. It counts as in vivo, rat. The settings on record: PO; for % reduction in arthritis score: day 14 to day 23, compared to vehicle treatment at end of study period; for ED50: Rattus norvegicus, BID, female Lewis rats. On the procedure:
Adjuvant arthritis was induced on day 1 in female Lewis rats (10-12 weeks) by intradermal injection of heat killed Mycobacterium tuberculosis in complete freund's adjuvant (CFA) intradermally (Mycobacterium tuberculosis 100 mg in 5 mL incomplete freunds adjuvant, 200 μL per rat). Animals were randomized into different treatment groups, each group consist of 8 animals based on clinical scores on day 14. The animals in control group were given CFA and in second control group were administered with CFA and vehicle (1% Tween-80+0.5% CMC, quantity sufficient, 3 ml/kg, PO), where as animals in experimental groups were treated with CFA and EP4 antagonist (Example B2 and Example B4) in therapeutic fashion orally twice a day (BID) from day 14 to day 23 at 0.1, 0.3, 1, 3, 10 and 30 mg/kg doses.
Animals were evaluated for clinical symptoms and scored accordingly for inflamed paws and erythema. The scorer was blind to the treatment groups. Key findings for example B2 (Refer FIG. 1) and B4 (Refer FIG. 2) in rat arthritis model are as follows.

T1 sequence (P35408 whole entry): as above

As for `C[C@H](Nc1nccc2c1N(Cc1cccc(Cl)c1)CCO2)c1ccc(C(=O)O)cc1` [Example B2, 4-[(1S)-1-[[4-[(3-Chlorophenyl)methyl]-2,3-dihydropyrido[4,3-b][1,4]oxazin-5-yl]amino]ethyl]benzoic acid], at human EP4 receptor, 0.3 µM produced 98% inhibition. The compound also registered an inhibition at 1 µM in experiment [1] of 100%. Besides, the “% reduction in arthritis score” value in experiment [2] (0.1 mg/kg BID) turned out to be 23%; in experiment [2] (0.3 mg/kg BID), 45%; in experiment [2] (1 mg/kg BID), 46%; in experiment [2] (3 mg/kg BID), 67%; in experiment [2] (10 mg/kg BID), 68%; in experiment [2] (30 mg/kg BID), 71%. For the same compound, the ED50 in experiment [2] stood at 0.76 mg/kg.
For the compound `O=C(O)c1ccc(C2(Nc3nccc4c3N(Cc3ccc(F)c(F)c3)CCO4)CC2)cc1` [Example B4, 4-[1-[[4-[(3,4-Difluorophenyl)methyl]-2,3-dihydropyrido[4,3-b][1,4]oxazin-5-yl]amino]cyclopropyl]benzoic acid], at human EP4 receptor, testing at 0.3 µM gave an inhibition of 83%. In experiment [1], testing at 1 µM gave an inhibition of 97%. Besides, the “% reduction in arthritis score” value in experiment [2] (0.1 mg/kg BID) is listed as 3%; in experiment [2] (0.3 mg/kg BID), 4%; in experiment [2] (1 mg/kg BID), 27%; in experiment [2] (3 mg/kg BID), 39%; in experiment [2] (10 mg/kg BID), 51%; in experiment [2] (30 mg/kg BID) it was 55%. Further, the ED50 in experiment [2] was determined as 8.8 mg/kg.
`C[C@H](Nc1nccc2c1N(Cc1ccc(C(F)(F)F)cc1)CCO2)c1ccc(C#N)cc1` [Example E1, 4-[(1S)-1-[[4-[[4-(Trifluoromethyl)phenyl]methyl]-2,3-dihydropyrido[4,3-b][1,4]oxazin-5-yl]amino]ethyl]benzonitrile]: testing at 0.3 µM at human EP4 receptor gave an inhibition of 92%. This compound returned an inhibition at 1 µM in experiment [1] of 91%.
In the same order, the values of `C[C@H](Nc1nccc2c1N(Cc1ccc(C(F)(F)F)cc1)CCO2)c1ccc(-c2nnn[nH]2)cc1` [Example F1, N-[(1S)-1-[4-(1H-Tetrazol-5-yl)phenyl]ethyl]-4-[[4-(trifluoromethyl)phenyl]methyl]-2,3-dihydropyrido[4,3-b][1,4]oxazin-5-amine] are 100% and 90%.
In the same order, the values of `C[C@H](Nc1ncc(Cl)c2c1N(Cc1ccc(C(F)(F)F)cc1)CCO2)c1ccc(C(=O)O)cc1` [Example G1, 4-[(1S)-1-[[8-Chloro-4-[[4-(trifluoromethyl)phenyl]methyl]-2,3-dihydropyrido[4,3-b][1,4]oxazin-5-yl]amino]ethyl]benzoic acid] are 100% and 92%.
